pIC50, pKd: −log10 of the molar value. ≈ marks a conversion by molar mass, not a printed value.
Assays:
[1] = biological target: T1, Prolyl endopeptidase, Prolyl Oligopeptidase (hPREP) (Homo sapiens, UniProt P48147); test: biochemical
T1 sequence (P48147 1-710): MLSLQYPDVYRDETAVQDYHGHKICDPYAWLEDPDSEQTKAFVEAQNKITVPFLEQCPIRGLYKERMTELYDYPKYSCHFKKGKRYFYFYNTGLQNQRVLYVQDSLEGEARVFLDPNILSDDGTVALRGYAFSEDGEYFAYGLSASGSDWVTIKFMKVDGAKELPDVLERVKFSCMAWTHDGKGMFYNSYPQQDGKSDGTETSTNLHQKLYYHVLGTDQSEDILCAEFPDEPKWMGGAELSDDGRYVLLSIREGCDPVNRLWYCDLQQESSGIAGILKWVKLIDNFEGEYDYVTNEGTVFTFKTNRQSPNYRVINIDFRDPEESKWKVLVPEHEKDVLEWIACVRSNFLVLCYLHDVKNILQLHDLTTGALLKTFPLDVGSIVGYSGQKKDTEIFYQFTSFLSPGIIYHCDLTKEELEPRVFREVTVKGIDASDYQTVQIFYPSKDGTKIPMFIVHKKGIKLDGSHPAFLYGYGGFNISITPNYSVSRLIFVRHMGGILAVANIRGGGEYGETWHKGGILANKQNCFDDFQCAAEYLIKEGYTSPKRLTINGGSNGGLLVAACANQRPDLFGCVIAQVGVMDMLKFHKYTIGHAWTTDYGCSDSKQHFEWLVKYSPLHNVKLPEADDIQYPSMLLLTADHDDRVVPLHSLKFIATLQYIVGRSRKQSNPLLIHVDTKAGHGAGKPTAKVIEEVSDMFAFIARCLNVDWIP

hFAP (M39-A757) = biological target: T2, hFAP (M39-A757) (Homo sapiens, UniProt Q12884); test: biochemical
T2 sequence (Q12884 39-757): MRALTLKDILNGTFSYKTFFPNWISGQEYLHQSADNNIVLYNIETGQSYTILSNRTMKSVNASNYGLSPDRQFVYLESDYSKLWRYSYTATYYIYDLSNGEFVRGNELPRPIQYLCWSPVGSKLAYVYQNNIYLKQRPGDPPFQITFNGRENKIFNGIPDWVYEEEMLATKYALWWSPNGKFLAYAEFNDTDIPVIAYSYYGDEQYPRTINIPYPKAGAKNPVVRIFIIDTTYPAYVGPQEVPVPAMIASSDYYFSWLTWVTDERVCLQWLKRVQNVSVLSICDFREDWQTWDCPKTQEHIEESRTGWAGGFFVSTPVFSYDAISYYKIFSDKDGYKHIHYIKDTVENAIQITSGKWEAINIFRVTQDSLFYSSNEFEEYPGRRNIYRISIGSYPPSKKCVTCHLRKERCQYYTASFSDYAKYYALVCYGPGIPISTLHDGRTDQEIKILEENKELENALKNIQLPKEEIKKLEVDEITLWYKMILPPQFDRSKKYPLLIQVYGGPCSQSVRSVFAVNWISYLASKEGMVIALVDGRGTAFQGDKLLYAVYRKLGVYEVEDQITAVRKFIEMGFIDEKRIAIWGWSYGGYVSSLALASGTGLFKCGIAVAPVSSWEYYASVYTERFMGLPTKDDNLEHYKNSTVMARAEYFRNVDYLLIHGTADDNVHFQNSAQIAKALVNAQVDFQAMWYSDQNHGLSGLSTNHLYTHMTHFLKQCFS
Procedure: Compounds were tested in a direct binding assay using 8K surface plasmon resonance biosensor (GE Healthcare) at 20° C. Immobilization of hFAP (M39-A757) on a CMD200M sensor chip (Xantec) was performed using standard amine coupling procedure in immobilization buffer (10 mM HEPES, 150 mM NaCl, 0.05% Tween20, pH 7.4). The surface was washed with 10 mM aq NaOH, 1M NaCl before being activated with EDC/NHS (GE Healthcare), followed by immobilization of hFAP (in 10 mM Acetate pH 5.0). Finally, the surface was deactivated by ethanolamine. Immobilization levels of hFAP were around 4000-6000 RU. The reference spot was treated as described, omitting the injection of hFAP. Compound concentration series were injected over the immobilized protein in increasing concentrations (2-500 nM) using single cycle kinetics in running buffer (20 mM TRIS, 150 mM NaCl, 0.05% Tween20, 1% DMSO, pH 7.4). Interaction models were fitted globally to the experimental traces, enabling determination of kon, koff and Kd.

Rat Hepatocytes (rHep) = test: Metabolic stability in rat hepatocytes (rHep); assay type: in vitro ADME; details: n = 1 or geometric mean (n = 2-3)
Procedure: Metabolic stability in rat hepatocytes was measured as described in J Comput Aided Mol Des 2015, 29, 795.

Kinetic solubility = assay type: physicochemical; details: kinetic from dmso stock, n = 1 or average (n = 2-4)
Procedure: Kinetic solubility was measured as described in Comput Aided Mol Des 2015, 29, 795.

[2] = Metabolic stability in human liver microsomes (HLM); assay type: in vitro ADME; details: n = 1 or average (n = 2-3)
Procedure: Metabolic stability in HLM was measured as described in J Comput Aided Mol Des 2015, 29, 795.

hFAP = biological target: T3, hFAP (Homo sapiens, UniProt Q12884); test: biochemical
T3 sequence (Q12884 38-760): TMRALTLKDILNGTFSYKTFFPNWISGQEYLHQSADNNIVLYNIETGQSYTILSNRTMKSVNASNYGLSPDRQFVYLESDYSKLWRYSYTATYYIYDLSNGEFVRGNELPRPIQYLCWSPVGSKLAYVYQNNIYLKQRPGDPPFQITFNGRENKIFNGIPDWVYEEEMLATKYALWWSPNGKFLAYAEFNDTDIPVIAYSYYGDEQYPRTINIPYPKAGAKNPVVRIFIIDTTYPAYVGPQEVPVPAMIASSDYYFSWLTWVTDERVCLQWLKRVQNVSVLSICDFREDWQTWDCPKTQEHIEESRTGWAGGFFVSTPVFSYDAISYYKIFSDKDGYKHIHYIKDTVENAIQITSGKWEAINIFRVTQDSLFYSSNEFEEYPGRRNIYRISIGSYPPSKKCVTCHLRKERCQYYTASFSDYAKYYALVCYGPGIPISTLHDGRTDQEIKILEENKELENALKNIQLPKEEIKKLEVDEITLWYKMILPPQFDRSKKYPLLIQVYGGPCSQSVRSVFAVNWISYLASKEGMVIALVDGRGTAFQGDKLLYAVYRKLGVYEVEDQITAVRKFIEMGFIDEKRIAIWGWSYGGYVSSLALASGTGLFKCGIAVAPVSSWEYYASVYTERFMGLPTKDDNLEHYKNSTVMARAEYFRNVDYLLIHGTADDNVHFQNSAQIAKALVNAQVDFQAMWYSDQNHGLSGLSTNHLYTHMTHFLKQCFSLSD
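Throughout, for pKd: surface plasmon resonance direct binding to hFAP amine-coupled on a sensor chip, rising compound concentrations by single cycle kinetics, Kd from global fit of interaction models.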
Procedure: 384 low volume black plates (Greiner #784076) were used. 4 μL, 0.48 nM enzyme solution (100 mM Tris HCl, 100 mM NaCl, 0.05% Chaps, pH 7.4) was added to 40 nL compounds (in DMSO) at 10 CR, 3 fold dilution series from 50 μM FAC. Plates were incubated for 15 min at rt in dark. 4 μL, 40 μM substrate solution (100 mM Tris HCl, 100 mM NaCl, 0.05% Chaps, pH 7.4) was added to each well. Plates were centrifuged at 1000 rpm and incubated for 30 min at rt in dark. The plates were read on a PHERAstar® reader with excitation 340 nm and emission 460 nm. Data were analyzed in Genedata Screener®. IC50 values were determined by plotting % inhibition versus log compound concentration and using a one site dose response model.

| SMILES | pIC50 [1] | pKd (hFAP (M39-A757)) | rHeps CLint (Rat Hepatocytes (rHep)) [μL/min/1E6] | solubility (Kinetic solubility) [µM] | microsomal CLint [2] [µL/min/mg] | pIC50 (hFAP) |
| --- | --- | --- | --- | --- | --- | --- |
| CC(c1ccc2nccc(C(=O)NCC(=O)N3CSC[C@H]3C#N)c2c1)c1ccc(Cl)cn1 (mixture of isomers) [Example 48, 6-((RS)-1-(5-Chloropyridin-2-yl)ethyl)-N-(2-((R)-4-cyanothiazolidin-3-yl)-2-oxoethyl)quinoline-4-carboxamide] | 6.62 | 9.92 | 27 | 240 (≈ 112 µg/mL) | > 300 |  |
| Cc1cc(C(C)c2ccc3nccc(C(=O)NCC(=O)N4CSC[C@H]4C#N)c3c2)on1 (mixture of isomers) [Example 49, N-(2-((R)-4-Cyanothiazolidin-3-yl)-2-oxoethyl)-6-((RS)-1-(3-methylisoxazol-5-yl)ethyl)quinoline-4-carboxamide] | 6.96 | 9.89 | 24 | 220 (≈ 95.8 µg/mL) | 46 |  |
| CC(c1ccnc(C(F)(F)F)c1)c1ccc2nccc(C(=O)NCC(=O)N3CSC[C@H]3C#N)c2c1 (mixture of isomers) [Example 52, N-(2-((R)-4-Cyanothiazolidin-3-yl)-2-oxoethyl)-6-((RS)-1-(2-(trifluoromethyl)pyridin-4-yl)ethyl)quinoline-4-carboxamide] | 6.49 | 9.70 | 49 | 120 (≈ 59.9 µg/mL) | 210 |  |
| CC1(C)CC(c2ccc3nccc(C(=O)NCC(=O)N4CSC[C@H]4C#N)c3c2)CO1 (mixture of isomers) [Example 61, N-(2-((R)-4-Cyanothiazolidin-3-yl)-2-oxoethyl)-6-(5,5-dimethyltetrahydrofuran-3-yl)quinoline-4-carboxamide] | 6.19 |  | 23 | > 1000 | 77 |  |
| N#C[C@@H]1CSCN1C(=O)CNC(=O)c1ccnc2ccc(C3CCOC3)cc12 (mixture of isomers) [Example 67, N-(2-((R)-4-Cyanothiazolidin-3-yl)-2-oxoethyl)-6-((RS)-tetrahydrofuran-3-yl)quinoline-4-carboxamide] | 7.06 | 9.96 | 11 | 880 (≈ 349 µg/mL) | 16 | 9.52 |
| N#C[C@@H]1CSCN1C(=O)CNC(=O)c1ccnc2ccc(OCC(F)F)cc12 [Example 2, (R)—N-(2-(4-Cyanothiazolidin-3-yl)-2-oxoethyl)-6-(2,2-difluoroethoxy)quinoline-4-carboxamide] | 6.72 | 10.28 | 5.9 | 490 (≈ 199 µg/mL) | 36 |  |
| N#C[C@@H]1CSCN1C(=O)CNC(=O)c1ccnc2ccc(OC(CF)CF)cc12 [Example 7, (R)—N-(2-(4-Cyanothiazolidin-3-yl)-2-oxoethyl)-6-((1,3-difluoropropan-2-yl)oxy)quinoline-4-carboxamide] | 6.82 |  | 9.1 | 550 (≈ 231 µg/mL) | 40 |  |
| N#C[C@@H]1CSCN1C(=O)CNC(=O)c1ccnc2ccc(OCC3CC(F)(F)C3)cc12 [Example 8, (R)—N-(2-(4-Cyanothiazolidin-3-yl)-2-oxoethyl)-6-((3,3-difluorocyclobutyl)methoxy)quinoline-4-carboxamide] | 5.92 |  | 11 | 8.3 (≈ 3.71 µg/mL) | 45 |  |
| N#C[C@@H]1CSCN1C(=O)CNC(=O)c1ccnc2ccc(C3(c4ccnc(C(F)(F)F)c4)CC3)cc12 [Example 13, (R)—N-(2-(4-Cyanothiazolidin-3-yl)-2-oxoethyl)-6-(1-(2-(trifluoromethyl)pyridin-4-yl)cyclopropyl)quinoline-4-carboxamide] | 6.34 | 9.92 | 140 | 78 (≈ 39.9 µg/mL) | > 300 |  |
| N#C[C@@H]1CSCN1C(=O)CNC(=O)c1ccnc2ccc(-c3ccoc3)cc12 [Example 14, (R)—N-(2-(4-Cyanothiazolidin-3-yl)-2-oxoethyl)-6-(furan-3-yl)quinoline-4-carboxamide] | 8.08 | 10.34 | 11 | 420 (≈ 165 µg/mL) | 25 | 10.10 |
| CC1(c2ccc3nccc(C(=O)NCC(=O)N4CSC[C@H]4C#N)c3c2)CCOCC1 [Example 21, (R)—N-(2-(4-Cyanothiazolidin-3-yl)-2-oxoethyl)-6-(4-methyl-tetrahydro-2H-pyran-4-yl)quinoline-4-carboxamide] | 8.08 | 6.85 | 7.9 | 500 (≈ 212 µg/mL) | 100 |  |
| Cc1cc(C2(c3ccc4nccc(C(=O)NCC(=O)N5CSC[C@H]5C#N)c4c3)CC2)no1 [Example 45, (R)—N-(2-(4-Cyanothiazolidin-3-yl)-2-oxoethyl)-6-(1-(5-methylisoxazol-3-yl)cyclopropyl)quinoline-4-carboxamide] | 6.82 | 9.89 | 21 | 250 (≈ 112 µg/mL) | 70 |  |
| CC(F)(F)Cc1ccc2nccc(C(=O)NCC(=O)N3CSC[C@H]3C#N)c2c1 [Example 53, (R)—N-(2-(4-Cyanothiazolidin-3-yl)-2-oxoethyl)-6-(2,2-difluoropropyl)quinoline-4-carboxamide] | 8.19 |  | 45 | 190 (≈ 76.8 µg/mL) | 36 |  |
| N#C[C@@H]1CSCN1C(=O)CNC(=O)c1ccnc2ccc(CCC(F)(F)F)cc12 [Example 58, (R)—N-(2-(4-Cyanothiazolidin-3-yl)-2-oxoethyl)-6-(3,3,3-trifluoropropyl)quinoline-4-carboxamide] | 7.19 |  | 17 | 700 (≈ 296 µg/mL) | 77 |  |
| N#C[C@@H]1CSCN1C(=O)CNC(=O)c1ccnc2ccc(C3(C#N)CCCCC3)cc12 [Example 60, (R)-6-(1-Cyanocyclohexyl)-N-(2-(4-cyanothiazolidin-3-yl)-2-oxoethyl)quinoline-4-carboxamide] | 6.54 |  | 110 | 180 (≈ 78 µg/mL) | > 300 |  |

— US20260070899A1, “N-(2-(4-CYANOTHIAZOLIDIN-3-YL)-2-OXOETHYL)-QUINOLINE-4-CARBOXAMIDES” (AstraZeneca AB, priority 2022, published 2026)
